In patent US9708314B2, “Heterocyclic amide compound” (NISSAN CHEMICAL INDUSTRIES, LTD., priority 2013, dated 2017):

Experiments:
Assay type in all cases: in vivo
[1] = test system: Echinochloa oryzacola Vasing.; assay: Test Example 1: herbicidal activity, application before weed generation in submerged conditions; conditions: Application herbicide amount 320 g/ha; Seventeenth Table
Outline: (§1)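 Water-diluted emulsion formulation is applied onto flood water (4 cm deep) covering alluvial soil on the day weed seeds are sown, after transplanting 2.5 leaf stage rice. Rates are expressed per hectare. Injury or control is graded 0–5 three weeks later.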

Monochoria vaginalis [2] = assay: as above; conditions: Application herbicide amount 320 g/ha; Seventeenth Table
Outline: as §1

Scirpus juncoides [3] = assay: as above; conditions: Application herbicide amount 320 g/ha; Seventeenth Table
Outline: as §1

[4] = test system: Echinochloa oryzacola Vasing.; assay: Test Example 2: herbicidal activity, application during weed generation in submerged conditions; conditions: Eighteenth Table; application herbicide amount 320 g/ha
Outline: (§2)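 Seeds were sown together in alluvial soil kept under 4 cm of water and grown at 25 °C to 30 °C. Once plants reached the one- to two-leaf stage, the diluted emulsion was applied to the water surface at a predetermined g/ha amount, and effects were rated 0–5 after three weeks.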

Monochoria vaginalis [5] = assay: as above; conditions: Eighteenth Table; application herbicide amount 320 g/ha
Outline: as §2

Scirpus juncoides [6] = assay: as above; conditions: Eighteenth Table; application herbicide amount 320 g/ha
Outline: as §2

Chenopodium album = assay: Test Example 4: herbicidal effect by application to foliage (diluvial soil, plastic box); conditions: Application herbicide amount 320 g/ha
Outline: (§3)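 Greenhouse plants (25° C. to 30° C., 14 d, diluvial soil) receive a foliar spray of water-diluted emulsifiable formulation at defined g/ha. Grading after 3 weeks uses a six-step herbicidal-ratio scale, with 4 covering 70% to <90% and 1 covering 5% to <20%.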

[7] = test system: Echinochloa crus-galli var. crus-galli; assay: as above; conditions: Application herbicide amount 320 g/ha
Outline: as §3

Triticum aestivum = assay: Test Example 4: effect on crop by application to foliage (diluvial soil, plastic box); conditions: Application herbicide amount 320 g/ha; effect on crop
Outline: as §3

Row | SMILES | A: Echinochloa oryzicola Vasing. (herbicidal effect grade) [1] | C: Monochoria vaginalis (herbicidal effect grade) (Monochoria vaginalis [2]) | B: Scirpus juncoides (herbicidal effect grade) (Scirpus juncoides [3]) | A (Echinochloa oryzicola Vasing.) herbicidal ratio grade [4] | C (Monochoria vaginalis) herbicidal ratio grade (Monochoria vaginalis [5]) | B (Scirpus juncoides) herbicidal ratio grade (Scirpus juncoides [6]) | O (Chenopodium album) | H [7] | e (Triticum aestivum)
1 | Cc1nnc(NC(=O)c2ccc(C(F)(F)F)n3c(C=O)nnc23)o1 [1-068] | 2 (Herbicidal ratio of 20% or more and less than 40%) | 3 (Herbicidal ratio of 40% or more and less than 70%) | 3 (Herbicidal ratio of 40% or more and less than 70%) | 2 (Herbicidal ratio of 20% or more and less than 40%) | 2 (Herbicidal ratio of 20% or more and less than 40%) | 2 (Herbicidal ratio of 20% or more and less than 40%) | 5 (Herbicidal ratio of 90% or more (almost completely withered)) | 5 (Herbicidal ratio of 90% or more (almost completely withered)) | 1 (Herbicidal ratio of 5% or more and less than 20%)
2 | COc1ccc(Cc2nnc3c(C(=O)Nc4nnc(C)o4)ccc(C(F)(F)F)n23)cc1 [1-069] | 5 (Herbicidal ratio of 90% or more (almost completely withered)) | 3 (Herbicidal ratio of 40% or more and less than 70%) | 4 (Herbicidal ratio of 70% or more and less than 90%) | 4 (Herbicidal ratio of 70% or more and less than 90%) | 4 (Herbicidal ratio of 70% or more and less than 90%) | 4 (Herbicidal ratio of 70% or more and less than 90%) | 5 (Herbicidal ratio of 90% or more (almost completely withered)) | 5 (Herbicidal ratio of 90% or more (almost completely withered)) | 1 (Herbicidal ratio of 5% or more and less than 20%)
3 | COc1cc(OC)cc(-c2nnc3c(C(=O)Nc4nnc(C)o4)ccc(C(F)(F)F)n23)c1 [1-070] | 5 (Herbicidal ratio of 90% or more (almost completely withered)) | 5 (Herbicidal ratio of 90% or more (almost completely withered)) | 5 (Herbicidal ratio of 90% or more (almost completely withered)) | 5 (Herbicidal ratio of 90% or more (almost completely withered)) | 5 (Herbicidal ratio of 90% or more (almost completely withered)) | 5 (Herbicidal ratio of 90% or more (almost completely withered)) | 5 (Herbicidal ratio of 90% or more (almost completely withered)) | 5 (Herbicidal ratio of 90% or more (almost completely withered)) | 0 (Herbicidal ratio of 5% or less (almost no effect))
4 | Cc1nnc(NC(=O)c2ccc(C(F)(F)F)n3c(-c4cc(Cl)cc(Cl)c4)nnc23)o1 [1-071] | 4 (Herbicidal ratio of 70% or more and less than 90%) | 4 (Herbicidal ratio of 70% or more and less than 90%) | 5 (Herbicidal ratio of 90% or more (almost completely withered)) | 3 (Herbicidal ratio of 40% or more and less than 70%) | 4 (Herbicidal ratio of 70% or more and less than 90%) | 5 (Herbicidal ratio of 90% or more (almost completely withered)) | 5 (Herbicidal ratio of 90% or more (almost completely withered)) | 0 (Herbicidal ratio of 5% or less (almost no effect)) | 0 (Herbicidal ratio of 5% or less (almost no effect))
5 | COCC[S+]([O-])c1nnc2c(C(=O)Nc3nnc(C)o3)ccc(C(F)(F)F)n12 (stereo not drawn) [1-073] | 4 (Herbicidal ratio of 70% or more and less than 90%) | 2 (Herbicidal ratio of 20% or more and less than 40%) | 3 (Herbicidal ratio of 40% or more and less than 70%) | 2 (Herbicidal ratio of 20% or more and less than 40%) | 1 (Herbicidal ratio of 5% or more and less than 20%) | 2 (Herbicidal ratio of 20% or more and less than 40%) | 5 (Herbicidal ratio of 90% or more (almost completely withered)) | 5 (Herbicidal ratio of 90% or more (almost completely withered)) | 3 (Herbicidal ratio of 40% or more and less than 70%)
6 | C=CC[S+]([O-])c1nnc2c(C(=O)Nc3nnc(C)o3)ccc(C(F)(F)F)n12 (stereo not drawn) [1-074] | 2 (Herbicidal ratio of 20% or more and less than 40%) | 0 (Herbicidal ratio of 5% or less (almost no effect)) | 2 (Herbicidal ratio of 20% or more and less than 40%) | 2 (Herbicidal ratio of 20% or more and less than 40%) | 0 (Herbicidal ratio of 5% or less (almost no effect)) | 0 (Herbicidal ratio of 5% or less (almost no effect)) | 5 (Herbicidal ratio of 90% or more (almost completely withered)) | 5 (Herbicidal ratio of 90% or more (almost completely withered)) | 0 (Herbicidal ratio of 5% or less (almost no effect))
7 | Cc1nnc(NC(=O)c2ccc(C(F)(F)F)n3c(N(C)C)nnc23)o1 [1-076] | 5 (Herbicidal ratio of 90% or more (almost completely withered)) | 4 (Herbicidal ratio of 70% or more and less than 90%) | 4 (Herbicidal ratio of 70% or more and less than 90%) | 2 (Herbicidal ratio of 20% or more and less than 40%) | 4 (Herbicidal ratio of 70% or more and less than 90%) | 0 (Herbicidal ratio of 5% or less (almost no effect)) | 5 (Herbicidal ratio of 90% or more (almost completely withered)) | 5 (Herbicidal ratio of 90% or more (almost completely withered)) | 3 (Herbicidal ratio of 40% or more and less than 70%)
8 | CSC(C)c1nnc2c(C(=O)Nc3nnc(C)o3)ccc(C(F)(F)F)n12 (stereo not drawn) [1-078] | 4 (Herbicidal ratio of 70% or more and less than 90%) | 3 (Herbicidal ratio of 40% or more and less than 70%) | 4 (Herbicidal ratio of 70% or more and less than 90%) | 4 (Herbicidal ratio of 70% or more and less than 90%) | 3 (Herbicidal ratio of 40% or more and less than 70%) | 3 (Herbicidal ratio of 40% or more and less than 70%) | 5 (Herbicidal ratio of 90% or more (almost completely withered)) | 5 (Herbicidal ratio of 90% or more (almost completely withered)) | 4 (Herbicidal ratio of 70% or more and less than 90%)
9 | Cc1nnc(NC(=O)c2ccc(C(F)(F)F)n3c(C(C)[S+](C)[O-])nnc23)o1 (stereo not drawn) [1-079] | 4 (Herbicidal ratio of 70% or more and less than 90%) | 3 (Herbicidal ratio of 40% or more and less than 70%) | 4 (Herbicidal ratio of 70% or more and less than 90%) | 4 (Herbicidal ratio of 70% or more and less than 90%) | 4 (Herbicidal ratio of 70% or more and less than 90%) | 3 (Herbicidal ratio of 40% or more and less than 70%) | 5 (Herbicidal ratio of 90% or more (almost completely withered)) | 5 (Herbicidal ratio of 90% or more (almost completely withered)) | 4 (Herbicidal ratio of 70% or more and less than 90%)
10 | Cc1nnc(NC(=O)c2ccc(C(F)(F)F)n3c(C(C)S(C)(=O)=O)nnc23)o1 (stereo not drawn) [1-080] | 5 (Herbicidal ratio of 90% or more (almost completely withered)) | 4 (Herbicidal ratio of 70% or more and less than 90%) | 4 (Herbicidal ratio of 70% or more and less than 90%) | 5 (Herbicidal ratio of 90% or more (almost completely withered)) | 4 (Herbicidal ratio of 70% or more and less than 90%) | 3 (Herbicidal ratio of 40% or more and less than 70%) | 5 (Herbicidal ratio of 90% or more (almost completely withered)) | 5 (Herbicidal ratio of 90% or more (almost completely withered)) | 5 (Herbicidal ratio of 90% or more (almost completely withered))
